Assay [1] addresses Alkaline phosphatase, placental type (Homo sapiens, UniProt P05187). The assay can be described thus: human placental alkaline phosphatase inhibition – biochemical, luminescence, confirmation (AID 1512). Type of assay: functional.
The target of assay [2] is T1, Alkaline phosphatase, tissue-nonspecific isozyme (Homo sapiens, UniProt P05186).
T1 sequence (P05186 whole entry): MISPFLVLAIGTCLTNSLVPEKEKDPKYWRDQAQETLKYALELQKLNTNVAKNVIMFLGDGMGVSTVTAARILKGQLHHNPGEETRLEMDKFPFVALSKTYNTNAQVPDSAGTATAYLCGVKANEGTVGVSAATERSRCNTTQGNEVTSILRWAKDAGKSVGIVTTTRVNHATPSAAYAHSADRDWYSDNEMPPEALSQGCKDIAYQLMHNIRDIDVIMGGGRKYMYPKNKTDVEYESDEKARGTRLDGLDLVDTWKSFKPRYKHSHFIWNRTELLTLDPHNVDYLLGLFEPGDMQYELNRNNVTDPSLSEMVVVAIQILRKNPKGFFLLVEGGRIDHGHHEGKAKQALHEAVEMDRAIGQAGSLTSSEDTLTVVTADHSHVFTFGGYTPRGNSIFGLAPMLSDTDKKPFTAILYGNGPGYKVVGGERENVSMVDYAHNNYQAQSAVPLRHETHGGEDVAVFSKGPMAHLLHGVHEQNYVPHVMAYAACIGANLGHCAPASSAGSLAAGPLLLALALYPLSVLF
The assay can be described thus: potency against alkaline phosphatase TNAP – biochemical, luminescent, dose response, SAR follow-up (AID 1056).

The target of assay [3] is Glyceraldehyde-3-phosphate dehydrogenase (Homo sapiens, UniProt P04406).
Assay [4] deals with T2, Aspartyl aminopeptidase (Plasmodium falciparum 3D7, UniProt Q8I2J3).
T2 sequence (Q8I2J3 whole entry): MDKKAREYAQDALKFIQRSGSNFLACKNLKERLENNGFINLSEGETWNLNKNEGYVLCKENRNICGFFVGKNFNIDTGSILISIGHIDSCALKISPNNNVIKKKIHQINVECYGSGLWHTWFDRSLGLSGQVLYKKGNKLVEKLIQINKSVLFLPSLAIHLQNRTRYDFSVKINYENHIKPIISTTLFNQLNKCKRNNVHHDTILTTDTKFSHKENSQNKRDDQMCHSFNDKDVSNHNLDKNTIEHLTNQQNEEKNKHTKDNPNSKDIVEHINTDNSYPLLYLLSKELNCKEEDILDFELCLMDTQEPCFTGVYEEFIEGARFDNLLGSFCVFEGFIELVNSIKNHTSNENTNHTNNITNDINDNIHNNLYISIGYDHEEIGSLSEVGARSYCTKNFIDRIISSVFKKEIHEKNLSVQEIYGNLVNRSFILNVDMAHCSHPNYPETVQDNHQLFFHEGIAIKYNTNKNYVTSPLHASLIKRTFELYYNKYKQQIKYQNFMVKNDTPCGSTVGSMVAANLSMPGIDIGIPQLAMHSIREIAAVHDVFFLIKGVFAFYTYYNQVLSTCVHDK
The assay can be described thus: Counterscreen for inhibitors of M1 and M17 aminopeptidases: QFRET-based biochemical high throughput dose response assay for inhibitors of the Plasmodium falciparum M18 Aspartyl Aminopeptidase (PFM18AAP). [Related PubChem assays: 1619 (Screening assay (M17LAP inhibitors).), 1445 (Screening assay (M1AAP inhibitors).)]. Background: A counterscreen serves to expose hits that act by an unwanted route or on another target.

Assay [5] can be described thus: alpha-synuclein stem-loop luciferase translation blockers – H4 neuroglioma cells, luminescence, confirmation (AID 1988). Type of assay: functional, cell-based.
A short description of assay [6]: cells. The assay is classed as functional, cell-based.
Assay [7] has as its target T3, Long-chain-fatty-acid--AMP ligase FadD28 (Mycobacterium tuberculosis, UniProt P9WQ59).
T3 sequence (P9WQ59 whole entry): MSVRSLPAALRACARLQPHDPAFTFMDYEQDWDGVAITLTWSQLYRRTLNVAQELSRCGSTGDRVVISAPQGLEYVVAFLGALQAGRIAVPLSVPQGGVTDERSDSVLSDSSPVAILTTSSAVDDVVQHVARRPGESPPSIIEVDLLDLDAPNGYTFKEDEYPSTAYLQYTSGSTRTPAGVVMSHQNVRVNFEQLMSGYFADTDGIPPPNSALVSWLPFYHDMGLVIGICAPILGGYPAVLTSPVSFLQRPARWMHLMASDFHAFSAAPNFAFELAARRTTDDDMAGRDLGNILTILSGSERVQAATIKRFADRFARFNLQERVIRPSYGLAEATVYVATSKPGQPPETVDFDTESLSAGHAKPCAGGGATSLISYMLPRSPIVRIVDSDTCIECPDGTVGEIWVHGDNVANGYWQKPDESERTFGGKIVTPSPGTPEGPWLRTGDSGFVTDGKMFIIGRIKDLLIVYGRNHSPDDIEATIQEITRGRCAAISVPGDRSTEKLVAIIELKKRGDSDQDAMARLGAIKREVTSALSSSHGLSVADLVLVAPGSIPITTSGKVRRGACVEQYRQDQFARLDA
The assay can be described thus: Fluorescence polarization aasay to screen for inhibitors that compete for the binding of FadD28 to a bisubstrate Measured in Biochemical System Using Plate Reader - 2147-01_Inhibitor_Dose_CherryPick_Activity. Type of assay: functional, Mycobacterium tuberculosis H37Rv. For orientation: Polarisation of emitted light reports the rotation of a fluorescent probe.

Assay [8] in a line: cells. The assay is classed as functional, cell-based. This is another data set of the same source.
A short description of assay [9]: general mammalian cell viability loss – activator set, cherry-pick, cytotoxicity control for miR-122 modulator project, dose response (AID 720690).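 Further: HEK293T human cells scored for general mammalian cytotoxicity.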 The assay is classed as functional, cell-based.
In assay [10] the target is T4, Zinc finger protein mex-5 (Caenorhabditis elegans, UniProt Q9XUB2).
T4 sequence (Q9XUB2 whole entry): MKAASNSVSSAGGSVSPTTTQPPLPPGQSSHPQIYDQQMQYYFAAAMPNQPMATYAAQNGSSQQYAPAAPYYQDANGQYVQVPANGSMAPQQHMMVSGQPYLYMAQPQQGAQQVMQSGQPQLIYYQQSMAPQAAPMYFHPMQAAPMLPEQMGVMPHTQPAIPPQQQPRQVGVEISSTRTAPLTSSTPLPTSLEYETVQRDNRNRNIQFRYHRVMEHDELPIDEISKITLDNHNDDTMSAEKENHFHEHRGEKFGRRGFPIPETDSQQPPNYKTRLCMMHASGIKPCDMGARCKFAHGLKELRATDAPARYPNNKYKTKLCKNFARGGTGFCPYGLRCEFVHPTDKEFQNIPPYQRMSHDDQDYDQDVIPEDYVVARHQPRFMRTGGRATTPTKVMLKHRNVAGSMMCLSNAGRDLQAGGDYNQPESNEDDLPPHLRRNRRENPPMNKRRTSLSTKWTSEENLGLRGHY
The assay can be described thus: potency of MEX-5 RNA-binding blockers – biochemical, C. elegans, fluorescence polarization, dose response (AID 1960).

Assay [11] addresses T5, Sentrin-specific protease 8 (Homo sapiens, UniProt Q96LD8).
T5 sequence (Q96LD8 whole entry): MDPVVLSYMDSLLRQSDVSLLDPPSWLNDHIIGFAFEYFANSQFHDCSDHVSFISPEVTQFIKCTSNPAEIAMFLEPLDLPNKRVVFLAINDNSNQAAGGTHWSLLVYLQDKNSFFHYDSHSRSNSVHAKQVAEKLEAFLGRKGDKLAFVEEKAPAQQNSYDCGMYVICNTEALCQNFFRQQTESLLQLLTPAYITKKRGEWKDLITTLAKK
The assay is classed as functional.

Activity calls are given as the source filed them. Bounds are passed on as bounds.

For orientation: IC50 means the concentration needed to halve the response being measured. The EC50 is the midpoint of the concentration-response curve. As a reminder, the AC50 is the concentration at which the activity in the assay is half-maximal.

Chain of Alkaline phosphatase, placental type (P05187 whole entry): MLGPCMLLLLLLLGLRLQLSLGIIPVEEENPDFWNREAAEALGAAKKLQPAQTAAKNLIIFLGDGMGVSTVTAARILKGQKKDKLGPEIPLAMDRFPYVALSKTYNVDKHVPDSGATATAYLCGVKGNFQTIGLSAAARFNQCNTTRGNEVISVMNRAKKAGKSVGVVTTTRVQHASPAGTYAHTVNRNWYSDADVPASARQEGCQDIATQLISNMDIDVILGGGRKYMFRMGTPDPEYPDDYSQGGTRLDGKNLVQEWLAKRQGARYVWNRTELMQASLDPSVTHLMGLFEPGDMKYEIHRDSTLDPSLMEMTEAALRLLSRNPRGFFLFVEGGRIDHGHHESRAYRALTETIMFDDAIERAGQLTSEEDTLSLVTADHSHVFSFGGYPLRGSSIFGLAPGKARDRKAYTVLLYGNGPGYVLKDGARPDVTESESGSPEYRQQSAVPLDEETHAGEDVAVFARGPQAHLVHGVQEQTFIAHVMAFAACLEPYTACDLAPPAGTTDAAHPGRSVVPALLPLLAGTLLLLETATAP
Chain of Glyceraldehyde-3-phosphate dehydrogenase (P04406 whole entry): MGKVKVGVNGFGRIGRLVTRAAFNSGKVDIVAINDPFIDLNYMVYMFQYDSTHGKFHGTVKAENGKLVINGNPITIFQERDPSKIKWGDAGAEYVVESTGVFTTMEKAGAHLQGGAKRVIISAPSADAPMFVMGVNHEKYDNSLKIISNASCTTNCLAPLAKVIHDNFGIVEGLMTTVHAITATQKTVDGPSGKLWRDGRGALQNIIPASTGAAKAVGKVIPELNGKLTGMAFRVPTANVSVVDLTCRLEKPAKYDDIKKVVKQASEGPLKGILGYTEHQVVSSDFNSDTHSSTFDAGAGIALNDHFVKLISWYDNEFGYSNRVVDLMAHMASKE

On to `Oc1cc(-c2cccc3ccccc23)[nH]n1`, for which the IC50 in assay [1] is > 10 µM (inactive); in [2], 3.87 µM (active); in [3], > 100 µM (not active); in assay [4], > 73.5 µM (not active).
As to `O=C(Nc1cccc(NC(=O)c2ccccc2Cl)c1)c1ccc([N+](=O)[O-])o1`, the EC50 in [5] was 8.12 µM (active).
With `Cn1c(O)c(/C=N/NC(=O)c2cc3ccccc3cc2O)c2ccccc21`, the results for the EC50 in [6] and in assay [8] were 4.07 µM (active) and 128 µM (active), respectively. Also, the AC50 in assay [7] was > 100 µM (inactive).
Consider `COc1ccc(CC2=CC(=O)c3ccccc3C2=O)cc1`, for which the AC50 in assay [9] is 5.27 µM (active).
With `c1coc(-c2nnc(-c3ccco3)nn2)c1`, the EC50 in assay [10] is 7.69 µM (active). For the same compound, the IC50 in [11] is 9.28 µM (active).

The record behind these values is ChEMBL document CHEMBL1201862, “PubChem BioAssay data set” (2004).
